Assays:
[1] = molecular target: T1, Peroxisome proliferator-activated receptor gamma (Homo sapiens, UniProt P37231)
T1 sequence (P37231 whole entry): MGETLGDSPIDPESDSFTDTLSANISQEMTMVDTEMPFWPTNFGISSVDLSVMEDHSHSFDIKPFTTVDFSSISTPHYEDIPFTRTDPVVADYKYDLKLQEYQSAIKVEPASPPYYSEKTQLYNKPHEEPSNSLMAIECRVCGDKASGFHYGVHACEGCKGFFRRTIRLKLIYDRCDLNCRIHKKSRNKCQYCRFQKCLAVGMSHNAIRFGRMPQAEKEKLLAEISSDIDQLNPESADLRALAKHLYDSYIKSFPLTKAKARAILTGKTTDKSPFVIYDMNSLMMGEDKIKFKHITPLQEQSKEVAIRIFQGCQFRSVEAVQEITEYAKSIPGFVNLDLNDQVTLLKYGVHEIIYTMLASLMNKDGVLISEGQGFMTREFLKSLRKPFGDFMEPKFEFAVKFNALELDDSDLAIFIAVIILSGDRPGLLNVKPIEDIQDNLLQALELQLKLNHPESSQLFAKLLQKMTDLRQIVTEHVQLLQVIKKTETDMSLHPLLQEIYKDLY
Description: Activity at human PPAR gamma transfected in NIH3T3 cells by luciferase activity assay

[2] = molecular target: T2, Peroxisome proliferator-activated receptor alpha (Homo sapiens, UniProt Q07869); assay: Activity at human PPAR alpha
T2 sequence (Q07869 whole entry): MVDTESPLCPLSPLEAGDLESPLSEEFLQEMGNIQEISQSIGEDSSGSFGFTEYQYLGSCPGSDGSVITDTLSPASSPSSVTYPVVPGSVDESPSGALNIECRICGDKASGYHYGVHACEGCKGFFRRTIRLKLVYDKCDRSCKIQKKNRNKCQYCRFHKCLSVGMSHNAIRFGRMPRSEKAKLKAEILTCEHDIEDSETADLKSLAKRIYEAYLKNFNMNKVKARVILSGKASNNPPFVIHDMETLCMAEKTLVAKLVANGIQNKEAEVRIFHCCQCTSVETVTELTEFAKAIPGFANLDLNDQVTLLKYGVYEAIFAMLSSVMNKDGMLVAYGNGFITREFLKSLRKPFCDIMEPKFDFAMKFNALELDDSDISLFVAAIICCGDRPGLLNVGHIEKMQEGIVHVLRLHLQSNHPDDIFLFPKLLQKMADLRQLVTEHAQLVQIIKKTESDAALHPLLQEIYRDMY

SMILES	EC50 [1] [nM]	EC50 [2] [µM]
CCOC(=O)C1=C(c2ccccc2)c2ccc(OC)cc2/C1=N/O	> 10000	–
CCOC(=O)CC1=C(c2ccccc2)c2ccc(OC)cc2C1=O	300	–
CCOC(=O)C1=C(c2ccccc2)c2ccc(OCc3ccccc3)cc2C1=O	220	–
CCOC(=O)C1=C(c2ccccc2)c2ccc(OC)cc2C1	> 10000	–
CCOC(=O)C1=C(c2ccoc2)c2ccc(OC)cc2C1=O	1000	–
CCOC(=O)C1=C(C23CC4CC(CC(C4)C2)C3)c2ccc(OC)cc2C1=O	2500	–
CCOC(=O)C1=C(c2ccccc2)c2ccc(OCCCc3ccccc3)cc2C1=O	50	–
CCOC(=O)C1=C(c2ccccc2)c2ccc(OC)cc2C1=O	300	> 100
CCOC(=O)C1=C(c2ccccc2)c2ccc(OCCc3ccccc3)cc2C1=O	210	–

Source: ChEMBL document CHEMBL1138934, “Indenone derivatives: a novel template for peroxisome proliferator-activated receptor gamma (PPARgamma) agonists” (J Med Chem, 2006)
